How the values were obtained:
DBA/2 mice = experiment: anticonvulsant protection (DBA2 mouse model of anticonvulsant efficacy, sound-induced seizures); format: in vivo; set-up: Anticonvulsant % Protect 2 hr: concentration or dose not given beside the values; details: for Anticonvulsant % Protect 2 hr: Table 1; for Anticonvulsant % Protect* 2h / Anticonvulsant % Protect* 1h: dosed at 30 mg/kg PO
[1] = anxiolytic activity relative to pregabalin (model not given); format: in vivo; details: dosed at 30 mg/kg PO; percent of pregabalin activity

Structure (SMILES): CC[C@@H](C)[C@H](CN)CC(=O)O
- Anticonvulsant % Protect 2 hr (DBA/2 mice): 0%

Structure (SMILES): CC(C)[C@@H](C)C(CN)CC(=O)O (some centres unmarked)
- Anticonvulsant % Protect 2 hr (DBA/2 mice): 100%

Structure (SMILES): CCC(CC)C(CN)CC(=O)O (centres unmarked)
- Anticonvulsant % Protect 2 hr (DBA/2 mice): 20%

Structure (SMILES): CCC(C)CC(CN)CC(=O)O (centres unmarked)
- Anticonvulsant % Protect 2 hr (DBA/2 mice): 100%

Structure (SMILES): CCCC(C)CC(CN)CC(=O)O (centres unmarked) [3-Aminomethyl-5-methyloctanoic acid, 3-Aminomethyl-5-methyl-octanoic acid]
- Anticonvulsant % Protect* 2h (DBA/2 mice): 100%

Structure (SMILES): CC(C)[C@H](C)[C@H](CN)CC(=O)O [(3R,4S)-3-Aminomethyl-4,5-dimethyl-hexanoic acid]
- Anxiolytic Activity* % Preg. Act. [1]: 58%

Structure (SMILES): CC(C)[C@@H](C)[C@@H](CN)CC(=O)O [(3S,4R)3-Aminomethyl-4,5-dimethyl-hexanoic acid]
- Anxiolytic Activity* % Preg. Act. [1]: 12%

Structure (SMILES): CCC[C@@H](C)C[C@H](CN)CC(=O)O.Cl [(3S,5R)-3-Aminomethyl-5-methyl-octanoic acid hydrochloride]
- Anticonvulsant % Protect* 1h (DBA/2 mice): 100%
- Anticonvulsant % Protect* 2h (DBA/2 mice): 100%

Structure (SMILES): CCCCC[C@H](C)C[C@H](CN)CC(=O)O [(3S,5S)-3-Aminomethyl-5-methyl-decanoic acid]
- Anticonvulsant % Protect* 1h (DBA/2 mice): 0%

Structure (SMILES): CC(C)CC(CN)CC(=O)O (centres unmarked) [reference compound]
- Anticonvulsant % Protect 2 hr (DBA/2 mice): 100%
